The species entered for the first test is Homo sapiens. The test can be described thus: Ratio of IC50 for Mer (unknown origin) to IC50 for Axl (unknown origin).
Regarding `CC(C)n1cc(C(=O)Nc2ccc(Oc3ncnc4c3CCN(C(=O)CN3CCOCC3)C4)c(F)c2)c(=O)n(-c2ccc(F)cc2)c1=O`, the Ratio IC50 came to 10.
With `CC(C)n1cc(C(=O)Nc2ccc(Oc3ncnc4c3CCN(C3CCN(C)CC3)C4)c(F)c2)c(=O)n(-c2ccc(F)cc2)c1=O`, the Ratio IC50 worked out at 5.5.
On the same count and under the same terms, in the case of `CC(C)n1cc(C(=O)Nc2ccc(Oc3ncnc4c3CN(C)CC4)c(F)c2)c(=O)n(-c2ccc(F)cc2)c1=O` it was 4.2.

A further test deals with T1, Tyrosine-protein kinase receptor UFO (Homo sapiens, UniProt P30530).
T1 sequence (P30530 whole entry): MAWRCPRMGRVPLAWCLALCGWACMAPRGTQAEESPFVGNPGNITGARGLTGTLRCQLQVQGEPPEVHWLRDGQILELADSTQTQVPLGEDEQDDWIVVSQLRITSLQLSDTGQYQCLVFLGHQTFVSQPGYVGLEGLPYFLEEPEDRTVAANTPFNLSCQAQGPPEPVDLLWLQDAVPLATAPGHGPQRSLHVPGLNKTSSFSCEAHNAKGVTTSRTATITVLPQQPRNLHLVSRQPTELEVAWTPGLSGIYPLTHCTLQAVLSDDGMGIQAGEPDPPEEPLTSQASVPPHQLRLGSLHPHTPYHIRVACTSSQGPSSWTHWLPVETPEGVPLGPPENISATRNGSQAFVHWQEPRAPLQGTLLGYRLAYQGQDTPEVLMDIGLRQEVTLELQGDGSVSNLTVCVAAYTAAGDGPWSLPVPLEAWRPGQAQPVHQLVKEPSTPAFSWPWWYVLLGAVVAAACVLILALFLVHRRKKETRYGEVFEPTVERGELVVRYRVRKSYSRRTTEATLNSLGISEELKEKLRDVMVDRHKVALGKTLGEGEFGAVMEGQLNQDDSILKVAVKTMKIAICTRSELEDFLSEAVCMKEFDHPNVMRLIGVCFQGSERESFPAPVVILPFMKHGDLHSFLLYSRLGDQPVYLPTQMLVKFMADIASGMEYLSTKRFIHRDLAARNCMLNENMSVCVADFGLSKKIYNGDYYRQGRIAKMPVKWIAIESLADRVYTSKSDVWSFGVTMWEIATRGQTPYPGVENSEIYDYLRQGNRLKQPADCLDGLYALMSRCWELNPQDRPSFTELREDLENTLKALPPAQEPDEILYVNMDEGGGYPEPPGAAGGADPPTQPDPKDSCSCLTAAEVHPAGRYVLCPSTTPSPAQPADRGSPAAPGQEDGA
In words: Inhibition of Axl (unknown origin) by cell free assay.
Take `CC(C)n1cc(C(=O)Nc2ccc(Oc3ncnc4c3CCN(C(=O)CN3CCOCC3)C4)c(F)c2)c(=O)n(-c2ccc(F)cc2)c1=O`: the midpoint of inhibition, the IC50, lay at 17 nM.
On to `CC(C)n1cc(C(=O)Nc2ccc(Oc3ncnc4c3CCN(C3CCN(C)CC3)C4)c(F)c2)c(=O)n(-c2ccc(F)cc2)c1=O`, for which the IC50 worked out at 5.6 nM.
On to `CC(C)n1cc(C(=O)Nc2ccc(Oc3ncnc4c3CN(C)CC4)c(F)c2)c(=O)n(-c2ccc(F)cc2)c1=O`, for which the IC50 stood at 64 nM.

The next test has as its system BaF3. The test can be described thus: Ratio of IC50 for Mer in mouse BaF3 cells to IC50 for Axl in mouse BaF3 cells. The class given is cell-based.
Consider `CC(C)n1cc(C(=O)Nc2ccc(Oc3ncnc4c3CCN(C(=O)CN3CCOCC3)C4)c(F)c2)c(=O)n(-c2ccc(F)cc2)c1=O`, for which the Ratio IC50 came out at 7.
`CC(C)n1cc(C(=O)Nc2ccc(Oc3ncnc4c3CCN(C3CCN(C)CC3)C4)c(F)c2)c(=O)n(-c2ccc(F)cc2)c1=O`: the Ratio IC50 is 4.2.
As for `CC(C)n1cc(C(=O)Nc2ccc(Oc3ncnc4c3CN(C)CC4)c(F)c2)c(=O)n(-c2ccc(F)cc2)c1=O`, the Ratio IC50 stood at 4.2.

A further test addresses T2, Tyrosine-protein kinase receptor UFO (Mus musculus, UniProt Q00993).
T2 sequence (Q00993 whole entry): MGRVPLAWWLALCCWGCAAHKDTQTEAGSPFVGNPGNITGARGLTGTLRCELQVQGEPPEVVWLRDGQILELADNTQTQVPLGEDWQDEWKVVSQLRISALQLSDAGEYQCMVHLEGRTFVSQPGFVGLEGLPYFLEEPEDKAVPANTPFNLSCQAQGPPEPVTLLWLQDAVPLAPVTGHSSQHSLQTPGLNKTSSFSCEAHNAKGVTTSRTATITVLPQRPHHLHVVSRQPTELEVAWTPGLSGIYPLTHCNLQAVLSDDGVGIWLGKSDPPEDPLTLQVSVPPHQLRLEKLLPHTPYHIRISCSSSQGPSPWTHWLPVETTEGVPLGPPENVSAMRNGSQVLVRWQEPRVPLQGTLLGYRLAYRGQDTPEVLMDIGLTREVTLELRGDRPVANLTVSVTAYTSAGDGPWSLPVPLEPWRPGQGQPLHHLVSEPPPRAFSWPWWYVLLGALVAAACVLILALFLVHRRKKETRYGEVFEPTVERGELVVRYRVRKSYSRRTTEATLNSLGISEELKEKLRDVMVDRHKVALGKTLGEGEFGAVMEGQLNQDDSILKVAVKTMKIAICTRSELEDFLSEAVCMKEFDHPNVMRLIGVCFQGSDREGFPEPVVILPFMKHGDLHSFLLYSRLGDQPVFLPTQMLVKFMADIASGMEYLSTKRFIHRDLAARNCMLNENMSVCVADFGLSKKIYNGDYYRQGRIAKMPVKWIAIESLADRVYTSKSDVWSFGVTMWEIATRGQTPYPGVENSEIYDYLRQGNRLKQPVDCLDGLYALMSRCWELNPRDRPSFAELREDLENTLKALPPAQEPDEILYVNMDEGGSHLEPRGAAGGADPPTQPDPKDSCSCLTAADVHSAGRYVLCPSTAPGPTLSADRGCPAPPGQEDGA
The test can be described thus: Inhibition of Axl in mouse BaF3 cells. Format: cell-based.
In turn, `CC(C)n1cc(C(=O)Nc2ccc(Oc3ncnc4c3CCN(C(=O)CN3CCOCC3)C4)c(F)c2)c(=O)n(-c2ccc(F)cc2)c1=O` returned an IC50 of 130 nM.
Molecule `CC(C)n1cc(C(=O)Nc2ccc(Oc3ncnc4c3CCN(C3CCN(C)CC3)C4)c(F)c2)c(=O)n(-c2ccc(F)cc2)c1=O` registered an IC50 of 13 nM.
As to `CC(C)n1cc(C(=O)Nc2ccc(Oc3ncnc4c3CN(C)CC4)c(F)c2)c(=O)n(-c2ccc(F)cc2)c1=O`, half-maximal inhibition (IC50) required 150 nM.

Another test deals with T3, Tyrosine-protein kinase Mer (Mus musculus, UniProt Q60805).
T3 sequence (Q60805 whole entry): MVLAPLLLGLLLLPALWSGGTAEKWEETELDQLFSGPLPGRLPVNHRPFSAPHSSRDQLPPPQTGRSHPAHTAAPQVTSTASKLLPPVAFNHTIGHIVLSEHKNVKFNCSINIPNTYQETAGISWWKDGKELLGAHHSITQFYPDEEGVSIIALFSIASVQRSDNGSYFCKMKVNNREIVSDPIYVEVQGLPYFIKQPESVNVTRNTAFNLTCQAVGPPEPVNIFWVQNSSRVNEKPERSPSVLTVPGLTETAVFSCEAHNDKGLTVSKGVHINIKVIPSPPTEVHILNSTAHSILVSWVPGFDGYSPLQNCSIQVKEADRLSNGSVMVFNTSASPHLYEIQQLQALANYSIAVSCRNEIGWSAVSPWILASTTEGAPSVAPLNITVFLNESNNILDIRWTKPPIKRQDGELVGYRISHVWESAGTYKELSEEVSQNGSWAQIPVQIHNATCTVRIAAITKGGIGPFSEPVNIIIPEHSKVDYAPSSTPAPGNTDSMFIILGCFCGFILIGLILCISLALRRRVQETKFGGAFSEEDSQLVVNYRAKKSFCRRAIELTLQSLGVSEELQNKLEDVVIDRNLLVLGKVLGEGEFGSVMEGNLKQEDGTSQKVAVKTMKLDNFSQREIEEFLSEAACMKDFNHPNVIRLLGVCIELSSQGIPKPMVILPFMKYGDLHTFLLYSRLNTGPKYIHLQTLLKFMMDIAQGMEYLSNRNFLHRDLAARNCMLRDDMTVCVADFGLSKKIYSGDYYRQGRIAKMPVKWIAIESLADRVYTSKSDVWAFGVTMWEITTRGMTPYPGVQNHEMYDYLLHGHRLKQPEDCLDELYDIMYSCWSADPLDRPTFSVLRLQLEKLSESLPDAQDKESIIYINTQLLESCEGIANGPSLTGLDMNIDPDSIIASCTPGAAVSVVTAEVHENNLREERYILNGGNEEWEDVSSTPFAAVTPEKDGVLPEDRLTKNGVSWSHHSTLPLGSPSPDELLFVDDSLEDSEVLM
The test can be described thus: Inhibition of Mer in mouse BaF3 cells. Format: cell-based.
On to `CC(C)n1cc(C(=O)Nc2ccc(Oc3ncnc4c3CCN(C(=O)CN3CCOCC3)C4)c(F)c2)c(=O)n(-c2ccc(F)cc2)c1=O`, for which the IC50 is 910 nM.
As to `CC(C)n1cc(C(=O)Nc2ccc(Oc3ncnc4c3CCN(C3CCN(C)CC3)C4)c(F)c2)c(=O)n(-c2ccc(F)cc2)c1=O`, the IC50 was determined as 55 nM.
Still for that read-out and setting: next, `CC(C)n1cc(C(=O)Nc2ccc(Oc3ncnc4c3CN(C)CC4)c(F)c2)c(=O)n(-c2ccc(F)cc2)c1=O`: 810 nM.

The target in the next test is T4, Tyrosine-protein kinase Mer (Homo sapiens, UniProt Q12866).
T4 sequence (Q12866 whole entry): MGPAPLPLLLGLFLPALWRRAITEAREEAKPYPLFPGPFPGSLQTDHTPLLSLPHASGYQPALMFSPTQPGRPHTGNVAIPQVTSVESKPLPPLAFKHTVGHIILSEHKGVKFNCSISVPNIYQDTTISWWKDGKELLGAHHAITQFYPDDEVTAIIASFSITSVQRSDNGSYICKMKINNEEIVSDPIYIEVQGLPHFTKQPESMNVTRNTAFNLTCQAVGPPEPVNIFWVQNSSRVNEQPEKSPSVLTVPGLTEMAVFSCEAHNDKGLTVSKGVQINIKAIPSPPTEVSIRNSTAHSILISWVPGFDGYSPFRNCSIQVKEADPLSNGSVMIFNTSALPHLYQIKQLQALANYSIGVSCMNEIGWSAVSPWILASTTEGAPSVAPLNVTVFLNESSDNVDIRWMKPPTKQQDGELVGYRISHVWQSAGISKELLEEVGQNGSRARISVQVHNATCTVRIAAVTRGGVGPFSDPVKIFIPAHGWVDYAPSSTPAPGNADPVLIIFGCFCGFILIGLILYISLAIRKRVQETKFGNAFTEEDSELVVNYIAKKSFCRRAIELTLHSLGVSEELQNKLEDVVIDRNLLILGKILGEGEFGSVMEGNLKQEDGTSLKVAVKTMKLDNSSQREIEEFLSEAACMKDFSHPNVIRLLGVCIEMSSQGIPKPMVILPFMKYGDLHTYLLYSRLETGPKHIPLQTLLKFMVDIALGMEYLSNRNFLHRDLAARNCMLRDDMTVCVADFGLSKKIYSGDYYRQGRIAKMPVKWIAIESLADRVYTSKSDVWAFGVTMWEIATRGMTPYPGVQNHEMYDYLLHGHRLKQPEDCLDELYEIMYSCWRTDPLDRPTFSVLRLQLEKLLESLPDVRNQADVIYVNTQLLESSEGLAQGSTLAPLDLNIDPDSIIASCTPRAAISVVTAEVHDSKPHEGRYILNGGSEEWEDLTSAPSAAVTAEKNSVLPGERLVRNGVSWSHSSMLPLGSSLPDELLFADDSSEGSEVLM
The test can be described thus: Inhibition of Mer (unknown origin) by cell free assay.
`CC(C)n1cc(C(=O)Nc2ccc(Oc3ncnc4c3CCN(C(=O)CN3CCOCC3)C4)c(F)c2)c(=O)n(-c2ccc(F)cc2)c1=O` had an IC50 of 170 nM.
On to `CC(C)n1cc(C(=O)Nc2ccc(Oc3ncnc4c3CCN(C3CCN(C)CC3)C4)c(F)c2)c(=O)n(-c2ccc(F)cc2)c1=O`, for which the IC50 came to 31 nM.
Still for that read-out and setting: next, `CC(C)n1cc(C(=O)Nc2ccc(Oc3ncnc4c3CN(C)CC4)c(F)c2)c(=O)n(-c2ccc(F)cc2)c1=O`: 270 nM.

Usually IC50 stands for the concentration that inhibits the measured activity by half. Read a low IC50 as greater potency in that assay.

Values taken from ChEMBL document CHEMBL4823291, “Discovery of 5,6,7,8-tetrahydropyrido[3,4-d]pyrimidine derivatives as novel selective Axl inhibitors” (Bioorg Med Chem Lett, 2021).
